According to patent publication US8507408B2 (Dow Global Technologies LLC, priority 2010, dated 2013):
Values after ≈ are worked out from the molar mass of the structure shown. Like-named read-outs stand apart in the source and are kept apart here.

Legend:
[1] = tested on: Gs + Os; test: Algal efficacy on dry paint film (Modified ASTM 5589); assay type: cell-based, Gloeocapsa sp. and Oscillatoria sp.; conditions: for MIC: total actives in paint, read-out: Total conc (minimum inhibitory concentration chosen for SI)
Description: (§1) A single biocide or blend of biocides was post added into white acrylic latex paint free of biocides to give a maximum total active ingredient/s concentration tested. This paint was then diluted with a biocide free acrylic latex paint to give targeted concentrations for the testing. Depending on the type of biocide blends tested, the total biocides concentrations varies from 400 to 3300 ppm. After biocides addition or dilution, each sample was hand mixed for at least a minute until uniformity was achieved. Each of the paint samples as well as a control sample (containing no biocide) were used to prepare films on black plastic-vinyl chloride/acetate copolymer panels (Leneta Company, Mahwah, N.J.) using a 0.0762 mm (3 mil) bird bar applicator. The panels were thoroughly dried for at least 2 days avoiding direct exposure to sunlight. Square discs (0.5 inch^2; 1.27 cm^2) were cut out from each panel and were used as the substrate for fungal and algal efficacy tests. This sample size allowed for an agar border when the sample disc was placed into the well of the test plate. Each sample was tested in duplicate.
(§2) The appropriate media (BOLD'S 3N for Chlorophytes, BG-11 for Cyanobacteria, and PDA for fungi) were used to support microbial growth. The test plates were maintained at room temp (25° C.-26° C.), in a cycled light-dark environment, for four weeks for algae. Plates for fungal challenge tests were maintained at 30° C. for four weeks. At the end of the incubation period the samples were scored for percent area covered by visible microbial growth.
(§3) ASTM 5589 is a standard accelerated test method for determining resistance of various coatings (including paints) to algal defacement. To accommodate for high-throughput screening, this method was scaled down from petri plates to 6-well plates. A single coupon was placed with a pair of sterile forceps at the center of the agar plug (on top) with the painted surface facing upwards. Algal inoculums were prepared by mixing equal concentrations (approximately 1×10^6 cfu/ml) and equal volumes (depending on number of samples to be inoculated) of like growing organisms.
(§4) In this synergy study, three pool of mixed algae were prepared as the test inoculum, Gloeocapsa sp. and Oscillatoria sp. a mix of cyanobacteria grown on BG-11 media; Chlorella sp., Chlorella kessleri, and Nostoc commune are unicellular chlorphytes that were mixed and grown on Bold media; Trentepohlia aurea, Tretepohlia odorata, and Calotrix parientina are filamentous algae that were mixed and grown on Bold media.
(§5) Each well that contained a tested coupon was inoculated with 400 μl of organism mixture (approximately 1×10^6 cfu/ml) making sure that the whole surface (paint film as well as the agar surrounding it) was evenly covered. The plates were incubated at room temp (25° C.-26° C.) with cyclic exposure to light (OTT-Lite model #OTL4012P, 40 Watt, 26 KLumen) and dark phases, for a period of four weeks. The total area covered was evaluated at the end of each week according to percent area covered in 5% increments.
(§6) The SI is calculated based on F. C. Kull et.
(§7) NE=no end point at the concentration tested that will meet the percent inhibition criteria set in each SI calculation.

[2] = tested on: An + Pf; test: Fungal efficacy on dry paint film (Modified ASTM 5590); assay type: cell-based, Aspergillus niger, Penicillium funiculosum; conditions: for MIC: total actives in paint, read-out: Total conc (minimum inhibitory concentration chosen for SI)
Description: as §1, §2
(§8) ASTM 5590 is a standard accelerated test method for determining resistance of various coatings (including paints) to fungal defacement. To accommodate for high-throughput screening, this method was scaled down from petri plates to 6-well plates. To set up the test, an agar plug was placed at the bottom of each well of the sterile 6-well plate. A single coupon was placed with a pair of sterile forceps at the center of the agar plug (on top) with the painted surface facing upwards. Fungal inoculums were prepared by mixing equal concentrations (approximately 1×10^6 cfu/ml) and equal volumes (depending on number of samples to be tested) of like growing organisms. For this synergy study, three pools of mixed fungi were prepared as the test inoculum. Cladosporium herbarum was mixed with Trichoderma viride, Aspergillus niger was mixed with Penicillium funiculosum and Alternaria alternata was mixed with Aureobasidium pullulans. Each well was inoculated with 400 microliter of organism mixture (approximately 1×10^6 cfu/ml) making sure that the whole surface (paint film as well as the agar surrounding it) was evenly covered. The plates were incubated at 30° C. in presence of moisture, for a period of four weeks. The total percent area covered was evaluated and recorded at the end of each week and recorded in increments of 5%.
as §6, §7

[3] = tested on: Cp + To + Ta; test: Algal efficacy on dry paint film (Modified ASTM 5589); assay type: cell-based; conditions: for Total conc (minimum inhibitory concentration chosen for SI): total actives in paint
Description: as §1, §2, §3, §4, §5, §6, §7

[4] = tested on: ApCh; test: Fungal efficacy on dry paint film (Modified ASTM 5590); assay type: cell-based, Aureobasidium pullulans, Cladosporium herbarum; conditions: for % Inhibition: at the total conc; for MIC: total actives in paint, read-out: Total conc (minimum inhibitory concentration chosen for SI)
Description: as §1, §2
as §8, with “Each well was inoculated with 400 microliter of organism mixture (approximately 1×10^6 cfu/ml) making sure that the whole surface (paint film as well as the agar surrounding it) was evenly covered. The plates were incubated at 30° C. in presence of moisture, for a period of four weeks.” left out
The SI is calculated based on F. C. […]

[5] = tested on: Cs + Ck + Nc; test: Algal efficacy on dry paint film (Modified ASTM 5589); assay type: cell-based, Chlorella sp., Chlorella kessleri, and Nostoc commune; conditions: for MIC: Nostoc commune, total actives in paint, read-out: Total conc (minimum inhibitory concentration chosen for SI)
Description: as §1, §2, §3, §4, §5, §6, §7

[6] = tested on: AaTv; test: Fungal efficacy on dry paint film (Modified ASTM 5590); assay type: cell-based, Alternaria alternata, Trichoderma viride; conditions: for % Inhibition: at the total conc; for MIC: total actives in paint, read-out: Total conc (minimum inhibitory concentration chosen for SI)
[7] = tested on: TV + Ch; test: as above; assay type: cell-based, Trichoderma viride, Cladosporium herbarum; conditions: four weeks
Description: as §1, §2, §8, §6

[8] = tested on: Aa + Ap; test: as above; assay type: cell-based, Alternaria alternata, Aureobasidium pullulans; conditions: four weeks
Description: as §1, §2, §8, §6

[9] = tested on: blue-green algae (Anabaena flos-aquae); conditions: 7 day; cited from earlier work
[10] = tested on: green algae (Selenastrum capricornutum); conditions: cited from earlier work; for EbC50: median effective concentration for biomass
[11] = tested on: diatom (Navicula pelliculosa); conditions: 7 day; cited from earlier work
[12] = tested on: marine algae (Skeletonema costatum); conditions: cited from earlier work
[13] = cited from earlier work
[14] = Zinc Glyphosate with DCOIT study, at the total conc
[15] = Zinc Glyphosate with DCOIT study
[16] = Zinc Glyphosate with OIT study, at the total conc
[17] = Zinc Glyphosate with OIT study, NE=no end point at the concentration tested

CCCCCCCCn1sc(Cl)c(Cl)c1=O [DCOIT, 4,5-dichloro-2-n-octyl-4-isothiazolin-3-one]
% Inhibition [1, 14]: 60% | MIC [1, 15]: 826 µg/mL | % Inhibition [1, 16]: 80% | MIC [1, 17]: 900 µg/mL | % Inhibition [2, 14]: 80% | MIC [2, 15]: 1150 µg/mL | % Inhibition [2, 16]: 50% | MIC ([2]; Zinc Glyphosate with OIT study): 450 µg/mL | % Inhibition [3, 14]: 80% | Total conc (minimum inhibitory concentration chosen for SI) [3, 15]: 575 ppm | % Inhibition [3, 16]: 80% | Total conc (minimum inhibitory concentration chosen for SI) ([3]; Zinc Glyphosate with OIT study): 1350 ppm | % Inhibition [4, 15]: 40% | MIC [4, 15]: 575 µg/mL | % Inhibition ([4]; Zinc Glyphosate with OIT study): 40% | MIC [4, 17]: 900 µg/mL | MIC [5, 15]: 575 µg/mL | MIC ([5]; Zinc Glyphosate with OIT study): 900 µg/mL | % Inhibition [5, 14]: 20% | % Inhibition [5, 16]: 100% | % Inhibition [6, 15]: 40% | MIC [6, 15]: 288 µg/mL (≈ 1020 µM) | % Inhibition ([6]; Zinc Glyphosate with OIT study): 100% | MIC [6, 17]: 450 µg/mL (≈ 1590 µM)

Zinc Glyphosate
% Inhibition ([1]; 750 ppm in paint, four weeks): 15% | % Inhibition ([1]; 1500 ppm in paint, four weeks): 72.5% | % Inhibition ([1]; 2500 ppm in paint, four weeks): 90% | % Inhibition ([2]; 750 ppm in paint, four weeks): 20% | % Inhibition ([2]; 1500 ppm in paint, four weeks): 27.5% | % Inhibition ([2]; 2500 ppm in paint, four weeks): 30% | % Inhibition ([7]; 750 ppm in paint): 50% | % Inhibition ([7]; 1500 ppm in paint): 75% | % Inhibition ([7]; 2500 ppm in paint): 90% | % Inhibition ([8]; 1500 ppm in paint): 47.5% | % Inhibition ([8]; 2500 ppm in paint): 70%

O=C(O)CNCP(=O)(O)O [Glyphosate, N-(phosphonomethyl)glycine]
% Inhibition ([1]; 750 ppm in paint, four weeks): 15% | % Inhibition ([1]; 1500 ppm in paint, four weeks): 72.5% | % Inhibition ([1]; 2500 ppm in paint, four weeks): 90% | % Inhibition ([2]; 750 ppm in paint, four weeks): 0% | % Inhibition ([2]; 1500 ppm in paint, four weeks): 5% | % Inhibition ([2]; 2500 ppm in paint, four weeks): 10% | EC50 [9]: 15 µg/mL (≈ 88.7 µM) | EbC50 ([10]; 72 hr): 485 mg/L | ErC50 ([10]; 72 hr, median effective concentration for growth rate): 460 mg/L | EbC50 ([10]; 7 day): 13.8 mg/L | % Inhibition ([3]; 750 ppm in paint, four weeks): 0% | % Inhibition ([3]; 1500 ppm in paint, four weeks): 10% | % Inhibition ([3]; 2500 ppm in paint, four weeks): 7.5% | % Inhibition ([7]; 750 ppm in paint): 2.5% | % Inhibition ([7]; 1500 ppm in paint): 50% | % Inhibition ([7]; 2500 ppm in paint): 72.5% | EC50 [11]: 42 µg/mL (≈ 248 µM) | % Inhibition ([5]; 750 ppm in paint, four weeks): 37.5% | % Inhibition ([5]; 1500 ppm in paint, four weeks): 60% | % Inhibition ([5]; 2500 ppm in paint, four weeks): 80% | % Inhibition ([8]; 750 ppm in paint): 7.5% | % Inhibition ([8]; 1500 ppm in paint): 20% | % Inhibition ([8]; 2500 ppm in paint): 67.5% | EC50 ([12]; 96 hr): 1.3 µg/mL (≈ 7.69 µM) | EC50 ([12]; 7 day): 0.64 µg/mL (≈ 3.79 µM) | solubility in water [13]: relatively high
